From ChEMBL document CHEMBL3596195, “Novel cajaninstilbene acid derivatives as antibacterial agents” (Eur J Med Chem, 2015)
Converted amounts (≈) assume the structure as drawn.

Tests used:
Assay type in all cases: functional
Staphylococcus aureus [1] = assay: Antibacterial activity against Staphylococcus aureus ATCC25923 assessed as bacterial growth inhibition after 24 hrs by broth dilution method; settings: ATCC25923, 24 h
[2] = system: Staphylococcus epidermidis; assay: Antibacterial activity against Staphylococcus epidermidis ATCC12228 assessed as bacterial growth inhibition after 24 hrs by broth dilution method; settings: ATCC12228, 24 h
Bacillus subtilis = assay: Antibacterial activity against Bacillus subtilis ATCC6633 assessed as bacterial growth inhibition after 24 hrs by broth dilution method; settings: ATCC6633, 24 h
Escherichia coli = assay: Antibacterial activity against Escherichia coli ATCC25922 assessed as bacterial growth inhibition after 24 hrs by broth dilution method; settings: ATCC25922, 24 h
Proteus vulgaris = assay: Antibacterial activity against Proteus vulgaris ATCC49101 assessed as bacterial growth inhibition after 24 hrs by broth dilution method; settings: ATCC49101, 24 h
Pseudomonas aeruginosa = assay: Antibacterial activity against Pseudomonas aeruginosa ATCC2785 assessed as bacterial growth inhibition after 24 hrs by broth dilution method; settings: ATCC2785, 24 h
Staphylococcus aureus [3] = assay: Antibacterial activity against methicillin-resistant Staphylococcus aureus ATCC43300 assessed as bacterial growth inhibition after 24 hrs by broth dilution method; settings: ATCC43300, 24 h
Staphylococcus aureus [4] = assay: Antibacterial activity against methicillin-resistant Staphylococcus aureus ATCC523512 assessed as bacterial growth inhibition after 24 hrs by broth dilution method; settings: ATCC523512, 24 h
Staphylococcus aureus [5] = assay: Antibacterial activity against methicillin-resistant Staphylococcus aureus ATCC425055 assessed as bacterial growth inhibition after 24 hrs by broth dilution method; settings: ATCC425055, 24 h
Staphylococcus aureus [6] = assay: Antibacterial activity against methicillin-resistant Staphylococcus aureus ATCC513045 assessed as bacterial growth inhibition after 24 hrs by broth dilution method; settings: ATCC513045, 24 h
Staphylococcus aureus [7] = assay: Antibacterial activity against methicillin-resistant Staphylococcus aureus ATCC62202 assessed as bacterial growth inhibition after 24 hrs by broth dilution method; settings: ATCC62202, 24 h
Staphylococcus aureus [8] = assay: Antibacterial activity against methicillin-resistant Staphylococcus aureus ATCC51033 assessed as bacterial growth inhibition after 24 hrs by broth dilution method; settings: ATCC51033, 24 h
Staphylococcus aureus [9] = assay: Antibacterial activity against methicillin-resistant Staphylococcus aureus ATCC52056 assessed as bacterial growth inhibition after 24 hrs by broth dilution method; settings: ATCC52056, 24 h
Staphylococcus aureus [10] = assay: Antibacterial activity against methicillin-resistant Staphylococcus aureus ATCC515992 assessed as bacterial growth inhibition after 24 hrs by broth dilution method; settings: ATCC515992, 24 h
Staphylococcus aureus [11] = assay: Antibacterial activity against methicillin-resistant Staphylococcus aureus ATCC510019 assessed as bacterial growth inhibition after 24 hrs by broth dilution method; settings: ATCC510019, 24 h

| Compound | MIC (Staphylococcus aureus [1]) | MIC [2] | MIC (Bacillus subtilis) | MIC (Escherichia coli) | MIC (Proteus vulgaris) | MIC (Pseudomonas aeruginosa) | MIC (Staphylococcus aureus [3]) | MIC (Staphylococcus aureus [4]) | MIC (Staphylococcus aureus [5]) | MIC (Staphylococcus aureus [6]) | MIC (Staphylococcus aureus [7]) | MIC (Staphylococcus aureus [8]) | MIC (Staphylococcus aureus [9]) | MIC (Staphylococcus aureus [10]) | MIC (Staphylococcus aureus [11]) |
| --- | --- | --- | --- | --- | --- | --- | --- | --- | --- | --- | --- | --- | --- | --- | --- |
| COC(=O)c1c(O)cc(OC)cc1/C=C/c1ccc(Cl)cc1 | > 128 µg/mL | > 128 µg/mL | 128 µg/mL (≈ 402 µM) | > 128 µg/mL | > 128 µg/mL | > 128 µg/mL | > 128 µg/mL | > 128 µg/mL | > 128 µg/mL | > 128 µg/mL | 128 µg/mL (≈ 402 µM) | > 128 µg/mL | > 128 µg/mL | > 128 µg/mL | > 128 µg/mL |
| COc1cc(/C=C/c2ccc(F)cc2)c(C(=O)O)c(O)c1CC=C(C)C | 8 µg/mL (≈ 22.4 µM) | 4 µg/mL (≈ 11.2 µM) | 1 µg/mL (≈ 2.81 µM) | > 128 µg/mL | > 64 µg/mL | > 64 µg/mL | 4 µg/mL (≈ 11.2 µM) | 4 µg/mL (≈ 11.2 µM) | 2 µg/mL (≈ 5.61 µM) | 8 µg/mL (≈ 22.4 µM) | 1 µg/mL (≈ 2.81 µM) | 1 µg/mL (≈ 2.81 µM) | 1 µg/mL (≈ 2.81 µM) | 8 µg/mL (≈ 22.4 µM) | 1 µg/mL (≈ 2.81 µM) |
| COC(=O)c1c(O)cc(OC)cc1/C=C/c1cc(OC)c(OC)c(OC)c1 | > 128 µg/mL | > 128 µg/mL | > 128 µg/mL | > 128 µg/mL | > 128 µg/mL | > 128 µg/mL | > 128 µg/mL | > 128 µg/mL | > 128 µg/mL | > 128 µg/mL | > 128 µg/mL | 128 µg/mL (≈ 342 µM) | > 128 µg/mL | 64 µg/mL (≈ 171 µM) | > 128 µg/mL |
| COC(=O)c1c(O)cc(OC)cc1/C=C/c1ccc(C)cc1 | > 128 µg/mL | > 128 µg/mL | > 128 µg/mL | > 128 µg/mL | > 128 µg/mL | > 128 µg/mL | > 128 µg/mL | > 128 µg/mL | 128 µg/mL (≈ 429 µM) | > 128 µg/mL | > 128 µg/mL | 128 µg/mL (≈ 429 µM) | > 128 µg/mL | > 128 µg/mL | > 128 µg/mL |
| COc1cc(/C=C/c2cc(OC)c(OC)c(OC)c2)c(C(=O)O)c(O)c1CC=C(C)C | 64 µg/mL (≈ 149 µM) | 32 µg/mL (≈ 74.7 µM) | 16 µg/mL (≈ 37.3 µM) | > 128 µg/mL | > 64 µg/mL | > 64 µg/mL | 16 µg/mL (≈ 37.3 µM) | 16 µg/mL (≈ 37.3 µM) | 16 µg/mL (≈ 37.3 µM) | 16 µg/mL (≈ 37.3 µM) | 32 µg/mL (≈ 74.7 µM) | 64 µg/mL (≈ 149 µM) | 32 µg/mL (≈ 74.7 µM) | 16 µg/mL (≈ 37.3 µM) | 16 µg/mL (≈ 37.3 µM) |
| COC(=O)c1c(/C=C/c2cccc(F)c2)cc(OC)c(CC=C(C)C)c1O | 64 µg/mL (≈ 173 µM) | > 128 µg/mL | 128 µg/mL (≈ 346 µM) | > 128 µg/mL | > 128 µg/mL | > 128 µg/mL | > 128 µg/mL | 64 µg/mL (≈ 173 µM) | > 128 µg/mL | 128 µg/mL (≈ 346 µM) | 128 µg/mL (≈ 346 µM) | 128 µg/mL (≈ 346 µM) | > 128 µg/mL | > 128 µg/mL | 128 µg/mL (≈ 346 µM) |
| COc1ccc(/C=C/c2cc(OC)c(CC=C(C)C)c(O)c2C(=O)O)cc1 | 32 µg/mL (≈ 86.9 µM) | 32 µg/mL (≈ 86.9 µM) | 16 µg/mL (≈ 43.4 µM) | > 128 µg/mL | > 64 µg/mL | > 64 µg/mL | 16 µg/mL (≈ 43.4 µM) | 16 µg/mL (≈ 43.4 µM) | 8 µg/mL (≈ 21.7 µM) | 16 µg/mL (≈ 43.4 µM) | 16 µg/mL (≈ 43.4 µM) | 32 µg/mL (≈ 86.9 µM) | 16 µg/mL (≈ 43.4 µM) | 16 µg/mL (≈ 43.4 µM) | 16 µg/mL (≈ 43.4 µM) |
| COC(=O)c1c(O)cc(OC)cc1/C=C/c1ccccc1F | > 128 µg/mL | 128 µg/mL (≈ 423 µM) | 128 µg/mL (≈ 423 µM) | > 128 µg/mL | > 128 µg/mL | 128 µg/mL (≈ 423 µM) | > 128 µg/mL | > 128 µg/mL | > 128 µg/mL | > 128 µg/mL | > 128 µg/mL | > 128 µg/mL | > 128 µg/mL | > 128 µg/mL | > 128 µg/mL |
| COC(=O)c1c(O)cc(OC)cc1/C=C/c1cccc(F)c1 | > 128 µg/mL | 128 µg/mL (≈ 423 µM) | 128 µg/mL (≈ 423 µM) | 128 µg/mL (≈ 423 µM) | > 128 µg/mL | 128 µg/mL (≈ 423 µM) | > 128 µg/mL | > 128 µg/mL | > 128 µg/mL | > 128 µg/mL | > 128 µg/mL | > 128 µg/mL | > 128 µg/mL | > 128 µg/mL | 128 µg/mL (≈ 423 µM) |
| COc1ccc(/C=C/c2cc(OC)cc(O)c2C(=O)O)cc1 | > 128 µg/mL | > 128 µg/mL | 64 µg/mL (≈ 213 µM) | > 128 µg/mL | > 128 µg/mL | > 128 µg/mL | > 128 µg/mL | > 128 µg/mL | > 128 µg/mL | > 128 µg/mL | > 128 µg/mL | > 128 µg/mL | > 128 µg/mL | > 128 µg/mL | > 128 µg/mL |
| COC(=O)c1c(/C=C/c2ccc(F)cc2F)cc(OC)c(CC=C(C)C)c1O | > 128 µg/mL | 64 µg/mL (≈ 165 µM) | 128 µg/mL (≈ 330 µM) | > 128 µg/mL | > 128 µg/mL | > 128 µg/mL | > 128 µg/mL | 64 µg/mL (≈ 165 µM) | 128 µg/mL (≈ 330 µM) | > 128 µg/mL | 64 µg/mL (≈ 165 µM) | 128 µg/mL (≈ 330 µM) | 128 µg/mL (≈ 330 µM) | > 128 µg/mL | > 128 µg/mL |
| COC(=O)c1c(/C=C/c2ccc(Cl)cc2)cc(OC)c(CC=C(C)C)c1O | > 128 µg/mL | 128 µg/mL (≈ 331 µM) | > 128 µg/mL | > 128 µg/mL | > 128 µg/mL | > 128 µg/mL | > 128 µg/mL | > 128 µg/mL | > 128 µg/mL | > 128 µg/mL | 128 µg/mL (≈ 331 µM) | > 128 µg/mL | > 128 µg/mL | > 128 µg/mL | > 128 µg/mL |
| COC(=O)c1c(/C=C/c2cccc(C#N)c2)cc(OC)c(CC=C(C)C)c1O | > 128 µg/mL | 128 µg/mL (≈ 339 µM) | > 128 µg/mL | > 128 µg/mL | > 128 µg/mL | > 128 µg/mL | > 128 µg/mL | > 128 µg/mL | > 128 µg/mL | > 128 µg/mL | 128 µg/mL (≈ 339 µM) | > 128 µg/mL | > 128 µg/mL | > 128 µg/mL | > 128 µg/mL |
| COc1cc(/C=C/c2cccc(C#N)c2)c(C(=O)O)c(O)c1CC=C(C)C | 4 µg/mL (≈ 11 µM) | 2 µg/mL (≈ 5.5 µM) | 16 µg/mL (≈ 44 µM) | > 128 µg/mL | > 64 µg/mL | > 64 µg/mL | 8 µg/mL (≈ 22 µM) | 2 µg/mL (≈ 5.5 µM) | 1 µg/mL (≈ 2.75 µM) | 4 µg/mL (≈ 11 µM) | 0.5 µg/mL (≈ 1.38 µM) | 2 µg/mL (≈ 5.5 µM) | 4 µg/mL (≈ 11 µM) | 2 µg/mL (≈ 5.5 µM) | 2 µg/mL (≈ 5.5 µM) |
| CCn1cc(C(=O)O)c(=O)c2cc(F)c(N3CCNCC3)cc21 [NORFLOXACIN] | 2 µg/mL (≈ 6.26 µM) | 2 µg/mL (≈ 6.26 µM) | 2 µg/mL (≈ 6.26 µM) | 32 µg/mL (≈ 100 µM) | 16 µg/mL (≈ 50.1 µM) | 16 µg/mL (≈ 50.1 µM) | 4 µg/mL (≈ 12.5 µM) | 8 µg/mL (≈ 25.1 µM) | 4 µg/mL (≈ 12.5 µM) | 4 µg/mL (≈ 12.5 µM) | 8 µg/mL (≈ 25.1 µM) | 4 µg/mL (≈ 12.5 µM) | 8 µg/mL (≈ 25.1 µM) | 16 µg/mL (≈ 50.1 µM) | 8 µg/mL (≈ 25.1 µM) |
| COC(=O)c1c(O)cc(OC)cc1/C=C/c1ccc(OC)cc1 | > 128 µg/mL | > 128 µg/mL | > 128 µg/mL | > 128 µg/mL | > 128 µg/mL | 128 µg/mL (≈ 407 µM) | > 128 µg/mL | > 128 µg/mL | > 128 µg/mL | > 128 µg/mL | > 128 µg/mL | > 128 µg/mL | > 128 µg/mL | > 128 µg/mL | 128 µg/mL (≈ 407 µM) |
| COC(=O)c1c(/C=C/c2ccccc2)cc(OC)c(CC=C(C)C)c1O | > 128 µg/mL | > 128 µg/mL | > 128 µg/mL | > 128 µg/mL | > 128 µg/mL | > 128 µg/mL | 128 µg/mL (≈ 363 µM) | > 128 µg/mL | 128 µg/mL (≈ 363 µM) | 128 µg/mL (≈ 363 µM) | 128 µg/mL (≈ 363 µM) | > 128 µg/mL | > 128 µg/mL | > 128 µg/mL | > 128 µg/mL |
